# Measurements reported in US20240299556A1, “Magnolol and Sulforaphane Conjgate, and Preparation Method and Use Thereof” (Shenzhen Zhenxing Biomedicine Research Center Co., Ltd., priority 2019, published 2024).
# Like-named read-outs stand apart in the source and are kept apart here.
# Key:
# Type in all cases: cell-based
# [1] = system: human lung cancer cell line NCI-H460; test: Proliferation of NCI-H460 cells (CCK8 kit)
# Protocol: 2.1 Cultivation of NCI-H460 Cells. The Cells, when Grow to the Logarithmic Growth phase, were digested with 0.25% trypsin, centrifuged at 1000×g for 5 min, and the cell pellet were re-suspended with 1640 medium containing 10% FBS and inoculated in a 96-well culture plate at a density of 5000 cells/well, and then cultured overnight at 37° C., 5% CO2 and saturated humidity.
# 2.2 Six duplicate wells were set in each group, and drugs were added to each well according to the following conditions, and then cultured for 24 h.
# Control group: The group without drugs.
# Magnolol group: Magnolol added at a final concentration of 20 μM.
# CT-1 group: CT-1 added at a final concentration of 20 μM.
# CT-2 group: CT-2 added at a final concentration of 20 μM.
# CT-3 group: CT-3 added at a final concentration of 20 μM.
# The above cells were intervened for 24 hours, and then the effects of drugs on tumor cell proliferation were detected by using CCK8 kit. The specific operations are as follows: […] was added to each well and cultured for 2 h, and then the absorbance (OD) value at a wavelength of 450 nm was measured on a microplate reader, and the cell survival rate of the other groups was calculated on the basis of the cell survival rate of the control group as 100%.
# [2] = system: human glioma cell line U251; test: Proliferation of U251 cells (CCK8 kit)
# Protocol: (§1) Human glioma cell line U251, human lung cancer cell line H1650, human liver cancer cell line HepG2, human breast cancer cell line MDA-MB-231, human gastric cancer cell line AGS, human colon cancer cell line LOVO, human ovarian cancer cell line OVCAR3. 2.1 Cultivation of the above 7 kinds of cancer cells. The cells, when grow to the logarithmic growth phase, were digested with 0.25% trypsin, centrifuged at 1000×g for 5 min, and the cell pellet were re-suspended with 1640 medium containing 10% FBS and inoculated in a 96-well culture plate at a density of 5000 cells/well, and then cultured overnight at 37° C., 5% CO2 and saturated humidity. 2.2 Each group was set up with 6 duplicate wells, and drugs were added to each well according to the following conditions, and then cultured for 24 h. Positive control groups: […] Sulforaphane added at a final concentration of 5.0 μM; • Positive control group 5: Sulforaphane added at a final concentration of 10.0 μM; • Positive control group 6: Sulforaphane added at a final concentration of 20.0 μM. CT-3 groups: Divided into 3 groups: • CT-3 group 1: CT-3 added at a final concentration of 5.0 μM; • CT-3 group 2: CT-3 added at a final concentration of 10.0 μM; • CT-3 group 3: CT-3 added at a final concentration of 20.0 μM. The above cells were intervened for 24 hours, and then the effects of drugs on tumor cell proliferation were detected by using CCK8 kit.
# [3] = system: seven human cancer cell lines; test: Proliferation of seven human cancer cell lines (CCK8 kit), summary over the panel
# Protocol: as §1
# [4] = system: human hepatic normal cell line LO2; test: Apoptosis of normal LO2 cells (apoptosis detection kit, flow cytometry); conditions: 24 h
# [5] = system: human colon cancer cell line SW480; test: Apoptosis of SW480 cells (apoptosis detection kit, flow cytometry); conditions: SW480, 10.0 μM, 24 h
# Protocol: (§2) The cells, when grow to the logarithmic growth phase, were digested with 0.25% trypsin, centrifuged at 1000×g for 5 min, and the cell pellet were re-suspended with 1640 medium containing 10% FBS and inoculated in a 6-well culture plate at a density of 3.0×10^5 cells/well, and then cultured overnight at 37° C., 5% CO2 and saturated humidity. 2.2 Each group was set up with 3 duplicate wells, and drugs were added to each well according to the following conditions, and then cultured for 24 h. […] Sulforaphane added at a final concentration of 10.0 μM. CT-3 group: CT-3 was added at a final concentration of 10.0 μM. The above cells were intervened for 24 hours, and then the effect of CT-3 on tumor cell apoptosis was determined by apoptosis detection kit and flow cytometry.
# [6] = system: human gastric cancer cell line AGS; test: Proliferation of AGS cells (CCK8 kit); conditions: 24 h
# Protocol: as §1
# [7] = system: human liver cancer cell line HepG2; test: Proliferation of HepG2 cells (CCK8 kit); conditions: HepG2, 24 h
# Protocol: as §1
# [8] = system: human colon cancer cell line LOVO; test: Proliferation of LOVO cells (CCK8 kit); conditions: 24 h
# Protocol: as §1
# [9] = system: human lung cancer cell line H1650; test: Proliferation of H1650 cells (CCK8 kit)
# Protocol: as §1
# [10] = system: human lung cancer cell line NCI-H460; test: Apoptosis of NCI-H460 cells (apoptosis detection kit, flow cytometry); conditions: NCI-H460, 10.0 μM, 24 h
# Protocol: as §2, with “[…]” for “6-well”, “CT-3” for “CT-3 was”
# [11] = system: human breast cancer cell line MDA-MB-231; test: Proliferation of MDA-MB-231 cells (CCK8 kit); conditions: MDA-MB-231, 24 h
# Protocol: as §1
# [12] = system: human ovarian cancer cell line OVCAR3; test: Proliferation of OVCAR3 cells (CCK8 kit)
# Protocol: as §1
# [13] = NCI-H460, 20 μM, 24 h, CCK8, read-out: Inhibition Rate (%)
# [14] = U-251, U251, 24 h, CCK8, read-out: Half maximal inhibitory concentration (IC50)
# [15] = U251, H1650, HepG2, MDA-MB-231, AGS, LOVO, OVCAR3, 24 h, CCK8, read-out: IC50 against 7 kinds of human cancer cells (range over the panel)
# [16] = CCK8, read-out: Half maximal inhibitory concentration (IC50)
# [17] = LOVO, CCK8, read-out: Half maximal inhibitory concentration (IC50)
# [18] = NCI-H1650, H1650, 24 h, CCK8, read-out: Half maximal inhibitory concentration (IC50)
# [19] = OVCAR-3, OVCAR3, 24 h, CCK8, read-out: Half maximal inhibitory concentration (IC50)
# [20] = read-out: Half maximal inhibitory concentration (IC50)
SMILES,"inhibition at 20 µM [1, 13] [%]","IC50 [2, 14] [µM]","IC50 [3, 15] [µM]","Apoptosis Rate (%) ([4]; human, 10 μM)",Apoptosis Rate (%) [5] [%],"IC50 [6, 16] [µM]","IC50 [7, 16] [µM]","IC50 [8, 17] [µM]","IC50 [9, 18] [µM]",Apoptosis Rate (%) [10] [%],"IC50 [11, 16] [µM]","IC50 [12, 19] [µM]",other results
C=CCc1ccc(O)c(-c2cc(CC=C)ccc2OCCSCCCCN=C=S)c1 [CT-1],18.4,,,,,,,,,,,,
C=CCc1ccc(O)c(-c2cc(CC=C)ccc2OCCS(=O)(=O)CCCCN=C=S)c1 [CT-2],70.3,,,,,,,,,,,,
C=CCc1ccc(O)c(-c2cc(CC=C)ccc2OCC[S+]([O-])CCCCN=C=S)c1 (stereo not shown) [CT-3],99,7.75,5.1 to 8.02,6.48,61.87,8.02,6.24,5.1,6.92,73.82,7.48,5.34,
C=CCc1ccc(O)c(-c2cc(CC=C)ccc2O)c1 [Magnolol],,,,,4.02,,,,,3.12,,,"IC50 ([2]; U-251, 24 h, read-out: Half maximal inhibitory concentration (IC50)): > 45 µM; IC50 ([3]; 24 h, read-out: IC50 against 7 kinds of human cancer cells (range over the panel)): > 45 µM; Apoptosis Rate (%) ([4]; normal LO2 cells, 10.0 μM, flow cytometry): 4.71%; IC50 [6, 20]: > 45 µM; IC50 [7, 20]: > 45 µM; IC50 ([8]; LoVo, read-out: Half maximal inhibitory concentration (IC50)): > 45 µM; inhibition at 20 µM ([1]; NCI-H460, 24 h, read-out: Inhibition Rate (%)): 1.2%; IC50 ([9]; NCI-H1650, 24 h, read-out: Half maximal inhibitory concentration (IC50)): > 45 µM; IC50 [11, 20]: > 45 µM; IC50 ([12]; OVCAR-3, 24 h, read-out: Half maximal inhibitory concentration (IC50)): > 45 µM"
C[S+]([O-])CCCCN=C=S (stereo not shown) [Sulforaphane],,22.5,18.4 to 22.5,6.52,19.99,18.1,21,18.5,22,18.90,22.2,18.4,
